# Counter-ions that a name gives are not always drawn. Like-named read-outs stand apart in the source and are kept apart here.
# Legend:
# log P (HPLC-MS) = type: physicochemical
# Meloidogyne incognita [1] = assay: Meloidogyne incognita test (MELGIN), gall formation, solvent acetone; type: in vivo; settings: application rate 20 ppm; after 14 days
# Method: (§1) Meloidogyne incognita—Test (MELGIN)
# To produce a suitable preparation of active compound, 1 part by weight of active compound is mixed with the stated amount of solvent, and the concentrate is diluted with water to the desired concentration.
# Vessels are filled with sand, a solution of the active ingredient, a suspension containing eggs and larvae of the southern root-knot nematode (Meloidogyne incognita) and salad seeds. The salad seeds germinate and the seedlings grow. Galls develop in the roots.
# After 14 days the nematicidal activity is determined on the basis of the percentage of gall formation. 100% means that no galls were found; 0% means that the number of galls found on the roots of the treated plants was equal to that in untreated control plants.
# Cooperia curticei = Cooperia curticei test (COOPCU), larval mortality; settings: 120 h; for Emax at 0.8 ppm: read-out: % Efficacy COOPCU; for mortality at 20 ppm: read-out: activity (larval mortality, efficacy)
# Method: Cooperia curticei—Test (COOPCU)
# (§2) Solvent: dimethyl sulfoxide
# (§3) To produce a suitable preparation of active compound, 10 mg of active compound are dissolved in 0.5 ml solvent, and the concentrate is diluted with “Ringer's solution” to the desired concentration.
# Approximately 40 nematode larvae (Cooperia curticei) are transferred into a test tube containing the compound solution.
# After 5 days percentage of larval mortality is recorded. 100% efficacy means all larvae are killed; 0% efficacy means no larvae are killed.
# Cooperia curticei—Test (COOPCU) Solvent: dimethyl sulfoxide
# [2] = system: Heligmosomoides polygyrus; assay: Heligmosomoides polygyrus/mouse in vivo efficacy test; settings: mice; oral; four consecutive days during early patency; dose not given
# Method: Heligmosomoides polygyrus/mouse
# Mice, experimentally infected by Heligmosomoides polygyrus, were treated on four consecutive days during early patency. Test compounds were formulated as solutions or suspensions and applied orally.
# Efficacy was determined as reduction of worm count in the intestine after necropsy compared to worm count in an infected and placebo-treated control group.
# Haemonchus contortus = Haemonchus contortus test (HAEMCO), larval mortality; settings: 120 h; for Emax at 0.8 ppm: 5 dat, read-out: % Efficacy HAEMCO; for mortality at 20 ppm: application rate 20 ppm, after 5 days, read-out: activity (larval mortality, efficacy)
# Method: Haemonchus contortus—Test (HAEMCO)
# as §2, §3
# Approximately 40 larvae of the red stomach worm (Haemonchus contortus) are transferred into a test tube containing compound solution.
# After 5 days percentage of larval mortality are recorded. 100% efficacy means all larvae are killed, 0% efficacy means no larvae are killed.
# Haemonchus contortus—Test (HAEMCO) Solvent: dimethyl sulfoxide
# Meloidogyne incognita [3] = assay: Meloidogyne incognita test (MELGIN), comparison example, solvent dimethylformamide with emulsifier; type: in vivo; settings: 504 h, 21 dat, read-out: % Efficacy MELGIN
# Method: as §1
# To produce a suitable preparation of active compound, 1 part by weight of active compound is mixed with the stated amount of solvent, and the concentrate is diluted with emulsifier-containing water to the desired concentration.
# Vessels are filled with sand, a solution of the active ingredient, a suspension containing eggs and larvae of Meloidogyne incognita and salad seeds. The salad seeds germinate and the seedlings grow. Galls develop on the roots.
# After the specified period of time the nematicidal activity is determined on the basis of the percentage of gall formation. 100% means that no galls were found; 0% means that the number of galls found on the roots of the treated plants was equal to that in untreated control plants.
smiles,measurement,setting,value
"CC(F)(CN)c1ccc(Cl)cc1Cl (stereo not drawn) [2-(2,4-dichlorophenyl)-2-fluoropropan-1-amine hydrochloride]",chromatographic logP,log P (HPLC-MS),0.89
"O=C(NCC(F)(F)c1ccc(Cl)cc1Cl)c1ccccc1C(F)(F)F [Example 1-1, N-[2-(2,4-dichlorophenyl)-2,2-difluoroethyl]-2-(trifluoromethyl)benzamide]","activity (nematicidal, gall formation)",Meloidogyne incognita [1],100%
same,Emax at 0.8 ppm,Cooperia curticei,100%
same,mortality at 20 ppm,Cooperia curticei,100%
same,activity (reduction of worm count in the intestine vs placebo-treated control),[2],65%
same,Emax at 0.8 ppm,Haemonchus contortus,100%
same,mortality at 20 ppm,Haemonchus contortus,100%
same,Emax at 2 ppm,Meloidogyne incognita [3],95%
"CC(Cc1ccc(Cl)cc1Cl)NC(=O)c1ccccc1C(F)(F)F (stereo not drawn) [Example 1-32 known from WO-A 2012/118139, reference compound]",Emax at 0.8 ppm,"Cooperia curticei; 0.8 ppm, 5 dat",0%
same,Emax at 0.8 ppm,Haemonchus contortus,80%
same,Emax at 2 ppm,Meloidogyne incognita [3],15%
"CC(F)(CNC(=O)c1ccccc1C(F)(F)F)c1ccc(Cl)cc1Cl (stereo not drawn) [Example 1-393, N-[2-(2,4-dichlorophenyl)-2-fluoropropyl]-2-(trifluoromethyl)benzamide]","activity (nematicidal, gall formation)",Meloidogyne incognita [1],100%
same,mortality at 20 ppm,Cooperia curticei,100%
same,mortality at 20 ppm,Haemonchus contortus,100%
"O=C(NCC(F)c1ccccc1C(F)(F)F)c1ccccc1C(F)(F)F (stereo not drawn) [Example 1-399, N-{2-fluoro-2-[2-(trifluoromethyl)phenyl]ethyl}-2-(trifluoromethyl)benzamide]",mortality at 20 ppm,Haemonchus contortus,100%
"O=C(NCC(F)c1ccccc1Cl)c1ccccc1C(F)(F)F (stereo not drawn) [Example 1-400, N-[2-(2-chlorophenyl)-2-fluoroethyl]-2-(trifluoromethyl)benzamide]",mortality at 20 ppm,Haemonchus contortus,100%
"CC(F)(CNC(=O)c1ccccc1C(F)(F)F)c1ccc(Cl)cc1Cl (stereo not drawn) [Example 1-406, N-[2-(2,4-dichlorophenyl)-2-fluoropropyl]-2-(trifluoromethyl)benzamide]",chromatographic logP,log P (HPLC-MS),3.7
same,"activity (nematicidal, gall formation)",Meloidogyne incognita [1],100%

# — patent US20180305299A1, “N-(2-FLUORO-2-PHENETHYL)CARBOXAMIDES AS NEMATICIDES AND ENDOPARASITICIDES” (priority 2013, published 2018)
